Experimental data: patent US20140107015A1, “PHARAMACEUTICAL COMPOSITION FOR PREVENTING OR TREATING HUMAN IMMUNODEFICIENCY VIRUS” (priority 2012, published 2014)
Like-named read-outs stand apart in the source and are kept apart here.

What was measured:
[1] = target: HIV-1 reverse transcriptase (UniProt P04585); details: for reverse transcriptase (RT) activity inhibition: 0.5 mg/ml, FIG. 23
[2] = test system: TZM-b1 cell infected with HIV-1IIIB; details: for HIV-1 replication (gene reporter): 0.05, 0.1, 0.5, and 1 mg/ml, 48 hours, FIG. 38; for HIV-1 replication inhibition relative to the other samples: among COS-D, COS-T, COS-Y, COS-TD, COS-TY
Method: Briefly, one day before infection, 5×10^4 TZM-d1 cells were seeded in a 24-well flat, and added with 100 μl of HIV-1IIIB supernatant (100 CCID50 (1 μg/ml)) to infect 50% of the cells. […] After incubation, cells were washed with cold PBS and lysed in 300 μl of lysis buffer (Promega Corp., Madison, Wis.). 20 μl of cell lysate was mixed with 100 μl of luciferase substrate (Promega) and light emission was measured for 10 seconds in a luminometer (Tecan Austria GmbH, Austria). In case of β-galactosidase assay, 100 μl of X-gal substrate was mixed with cell lysate in order to stain the HIV-1 replicated cells and light absorption was measured at the optical density of 550 nm.

[3] = test system: 8E5 and MOLT-4 cell lines; test: Syncytia formation in co-culture of 8E5 and MOLT-4 cell lines; assay type: cell-based; details: 0.5 mg/ml; for number of syncytia formed with time: FIG. 36; for syncytia formation inhibiting effect compared with control group: positive control AZT-Saq
Method: The number of syncytia formed with time was determined. Mock was an experimental group without the sample and AZT-Saq treated with AZT and saquinavir at the same time was used as a positive control.

[4] = test system: C8166 cell lines infected with HIV-1RF; test: Syncytia formation in C8166 cells infected with HIV-1RF (microscopy, 48 hours); assay type: cell-based; details: 0.5 mg/ml; for number of syncytia formation per well versus untreated control: FIG. 22; for syncytia formation observed with a microscope: FIGS. 18, 19, 21
Method: Since then, a degree of syncytia formation was observed by using a microscope.
When the virus infection stimulating cell fusion was analyzed, the syncytia formation was tested in order to investigate the virus infection.
Specifically, 1×10^5 C8166 cells in aliquots of 300 μl were seeded in triplicate to a 48-well plate containing 100 μl of serial dilutions of COS-amino acids (each of chitosan oligomer-amino acid conjugate) in complete RPMI-1640 medium with 5% FBS. After 2 hours of incubation, the cells were infected with 100 μl of stock supernatant of HIV-1RF diluted in complete medium at 200 CCID50 (μg/ml). The plates were incubated at 37° C. for 48 hours and the formation of syncytia was determined microscopically by using an inverted microscope (Leica Microsystems, Germany).
After 2 hours of incubation, the cells were infected with 100 μl of stock supernatant of HIV-1RF diluted in complete medium at 200 CCID50 (μg/ml). The plates were incubated at 37° C. for 48 hours and the formation of syncytia was determined microscopically by using an inverted microscope.

[5] = test system: CEM-SS cells infected with HIV-1IIIB and HIV-1Saq; details: 0.5 mg/ml; FIG. 37
Method: Uninfected CEM-SS cells were cultured into individual wells of a 48-well microtiter plate at a density of 3×10^4 cells/well in 400 μl of medium. Diluted HIV-1IIIB and HIV-1Saq stock supernatants (100 μl) were added to appropriate wells to yield a final M.O.I of 1.0 (CCID50). […] After a total of 4 days incubation, in order to measure the amount of p24 production, HIV-1 p24 antigen capture ELISA was performed using the commercial kit (Perkin-Elmer Life Sciences, Boston, Mass.) according to the manufacturer's instruction.

[6] = test system: uninfected C8166 cell lines co-cultured with H9 cells infected with HIV-1IIIB; test: Syncytia formation in co-culture of uninfected C8166 with H9 infected with HIV-1IIIB; assay type: cell-based; details: for syncytia formation in co-culture over concentrations: 0.2, 0.4, 0.6, 0.8, and 1 mg/ml, 96 hours, FIGS. 32, 33; for syncytia formation inhibition in co-culture compared with positive control group: positive control Dextran sulfate
Method: After 96 hours, the formed syncytia was counted by using a microscope (100×). Dextran sulfate having the syncytia formation inhibiting effect was used as a positive control group.

[7] = test system: C8166 cell lines infected with HIV-1IIIB; details: 0.5 mg/ml; for cell viability of HIV-1-infected C8166 cells: 48 hours after HIV-1IIIB infection, MTT, untreated cells = 100%; for cell protecting effect from HIV-1 lysis activity (cell deaths): FIG. 17 and 20
Method: And then, the cytotoxicities were measured through MTT assay as time passed.
Since C8166 cell lines were sensitive about lysis effect of HIV-1 replication, the present test evaluated a degree of inhibiting HIV-1 replication based on the sensitivity of C8166 cells at lysis activity due to HIV-1 infection in the present experiment.
Since then, the supernatants of HIV-1IIIB were diluted in complete medium to yield sufficient cytopathicity, and a 100 μl aliquot was added to the wells. Plates were incubated for 24 h, 48 h and 72 h at 37° C. and after each respective incubation, 100 μl of 500 μg/ml MTT solution was added to each well and the plate was incubated for another 4 hours at 37° C. The formazan salt was dissolved in acidified propanol containing 50% DMSO and 4% triton X-100. […] The optical density of formazan formed by untreated cells was taken as 100% of viability.

[8] = test system: H9 cells infected with HIV-1IIIB; test: RT-PCR analysis of HIV-1 gene (Vif, Env, Gag) expression; assay type: cell-based; details: for Vif, Env, and Gag genes expressions: 0.05, 0.1, 0.5, and 1 mg/ml, 4 days, FIG. 35; for Env gene expression: as treatment concentrations were increased
Method: RNA in the total cells cultured was isolated by using Trizol reagent (Invitrogen Co., CA, USA). 2 μg of isolated RNA was reverse-transcripted into cDNA using an oligo-(dT) primer (Promega, Madison, Wis., USA). […] A PCR product was isolated by subjecting an electrophoresis on 1.5% agarose gel at 100 V for 10 minutes. The gel was stained with 1 mg/ml of EtBr, and then photographed under UV illumination by using AlphaEas® gel image analysis software (Alpha Innotech., San Leandro, Calif., USA).

[9] = test system: H9 cells infected with HIV-1IIIB; test: Western blot analysis of p24 protein amount in cells; assay type: cell-based; details: 0.01 to 1 mg/ml; cultured for 4 days; FIG. 34
Method: The total cultured cells were lysised in RIPA buffer solution (Sigma-Aldrich Corp., St. Louis, USA), centrifuged, and then the total protein amount of cell lysate was measured by using Lowry method (BioRad Laboratories, Hercules, Calif.). The aliquot supernatant including the same volume of protein (15 μg) was subjected to 10% or 12% SDS-PAGE gel, transferred on a nitrocellulose membrane (Amersham Pharmacia Biotech., England, UK), and blocked in Tris buffered saline containing 0.1% (v/v) Tween-20 (TBS-T) and 5% skim milk powder for at least 1 hour. The membrane was hybridized with mouse anti-p24 monoclonal antibody (Santa Cruz Biotechnology Inc., CA, USA). All the primary monoclonal antibodies were diluted with TBS-T at a ratio of 1:1000. The antibody was detected with Horseradish peroxidase (HRP)-conjugated anti-mouse IgG secondary antibody for 1 hour. The immune reactive protein was detected by using a chemical fluorescence ECL detecting kit (Amersham Pharmacia Biosciences, England, UK) according to the manufacturer's instruction. The western blot bands were visualized by LAS3000® chemiluminescence (Fujifilm Life Science, Tokyo, Japan).

[10] = test system: C8166 cells infected with HIV-1RF; test: Syncytia formation inhibition in C8166 infected with HIV-1RF, various concentrations, 96 hours; assay type: cell-based; details: for syncytia formation inhibition over concentrations: 0.2, 0.4, 0.6, 0.8, and 1.0 mg/ml, 96 hours, FIGS. 28, 29
Method: Specifically, 1×10^5C8166 cells in aliquots of 300 μl were seeded in triplicate to a 48-well plate containing 100 μl of serial dilutions of COS-N in complete RPMI-1640 medium with 5% FBS. After 2 hours of incubation, the cells were infected with 100 μl of stock supernatant of HIV-1RF diluted in complete medium at 200 CCID50 (μg/ml). The plates were incubated at 37° C. for 96 hours and the formation of syncytia was determined microscopically by using an inverted microscope (Leica Microsystems, Germany). Dextran sulfate having the syncytia formation inhibiting effect was used as a positive control group.
The syncytia formation effect was measured by using the same method as in Example <4-3>.

[11] = target: T1, HIV-1 reverse transcriptase (Human immunodeficiency virus type 1 group M subtype B, UniProt P05959); assay type: biochemical; details: for reverse transcriptase inhibiting activity over concentrations: 0.05, 0.1, 0.25, 0.5, and 1 mg/ml, FIGS. 26, 27
T1 construct: endogenous in cells; host or cells: C8166 and CEM-SS cells infected with HIV-1RF (lysates)

[12] = test system: H9 cells infected with HIV-1IIIB; test: HIV-1 p24 antigen capture ELISA of culture supernatant; assay type: cell-based; details: various concentrations; FIG. 31
Method: In order to measure p24 amount secreted from virus, H9 cells (3×10^6 cells/ml) was cultured at 37° C. for 1 hour in the presence of HIV-1IIIB. The unbound virus was removed from the cells by washing, and re-suspended in the culture medium to be 3×10^5 cells/ml. 1 mL of aliquot was injected to 24-well plate including the medium having the same volume containing COS-E sample. In order to measure the amount of virus secreted in the medium, HIV-1 p24 antigen capture ELISA was performed according to the manufacturer's instruction using a commercial kit (Perkin-Elmer Life Sciences, Boston, Mass.).

HIV-1 protease [13] = target: T2, HIV-1 protease (Human immunodeficiency virus type 1 group M subtype B, UniProt P05959); test: Protease assay with protease diluents of C8166 and CEM-SS infected with HIV-1RF, various concentrations; assay type: biochemical; details: 0.05, 0.1, 0.25, 0.5, and 1 mg/ml; FIG. 30
T2 construct: endogenous in cells; host or cells: C8166 and CEM-SS cells infected with HIV-1RF
Method: First, the HIV-1 protease inhibiting activity was measured by using the same method as in Example <3-3> except that the protease diluents of two cell lines, C8166 and CEM-SS infected with HIV-1RF.

[14] = test system: HIV-1 protease of HIV-1saq; test: SensoLyte 520 HIV-1 protease FRET assay in saquinavir resistant HIV-1saq; assay type: biochemical; details: saquinavir resistant strain; FIG. 25
From the text: Meanwhile, the present inventors examined HIV-1 protease inhibiting effect using other cell lines of HIV-1. They use HIV-1saq that is a cell line having a resistance to saquinavir.
Saquinavir was used as a positive control group.

HIV-1 protease [15] = details: 0.5 mg/ml; HIV-1RF/HIV-1IIIB; FIG. 24
Method: The amino acid sequence of FRET peptide is made by copying p17/p24 decomposition site by HIV-1 protease on a precursor Gag protein. FRET peptide is decomposed by HIV-1 protease and fluoresces.
Since then, 20 μl of substrate was added to HIV-1 protease that is pre-cultured at the same temperature for the same period and then slowly well-mixed for 30 to 60 second, completely. Since then, the fluorescence was measured at Ex/Em=340 nm/490 nm. The inhibiting rate was estimated as a relatively value to 100 of the fluorescence of the sample without an inhibitor.

[16] = sample 0.5 mg/ml, mean of HIV-1RF and HIV-1IIIB

Compound | HIV-1 replication (gene reporter) [2] | number of syncytia formation per well versus untreated control [4] | syncytia formation observed with a microscope [4] | reverse transcriptase (RT) activity inhibition [1] | IC50 (RT inhibition) ([1]; mean of HIV-1RF and HIV-1IIIB) [µg/mL] | RT Inhibition (%) [1, 16] [%] | cell viability of HIV-1-infected C8166 cells [7] [%] | other results
Cc1cn([C@H]2C[C@H](N=[N+]=[N-])[C@@H](CO)O2)c(=O)[nH]c1=O [AZT, zidovudine, reference compound] | – | – | – | – | – | – | – | RT Inhibition (%) ([1]; positive control 2 μM, mean of HIV-1RF and HIV-1IIIB): 82.6%; IC50 ([1]; read-out: IC50 (RT inhibition), mean of HIV-1RF and HIV-1IIIB): 303 µM
Chitosan oligomer-(Threonine-Aspartic acid) [COS-TD] | inhibited the HIV-1 replication depending on the concentration | more significantly inhibited | rarely formed | effectively inhibited | 207 | 85.1 | 94.6 | HIV-1 replication inhibition relative to the other samples [2]: more effective; number of syncytia formed with time [3]: not increased; syncytia formation inhibiting effect compared with control group [3]: high syncytia formation inhibiting effect; p24 production inhibiting activity with later addition [5]: reduced as time passes; syncytia formation in co-culture over concentrations [6]: inhibited depending on the treated concentration; syncytia formation inhibition in co-culture compared with positive control group [6]: more effective; cell protecting effect from HIV-1 lysis activity (cell deaths) [7]: high cell protecting effect; Vif, Env, and Gag genes expressions [8]: reduced depending on the treatment concentrations; Env gene expression [8]: significantly inhibited; p24 antigen production (western blot) [9]: inhibited depending on the treatment concentrations
Chitosan oligomer-(Threonine-Tyrosine) [COS-TY] | inhibited the HIV-1 replication depending on the concentration | more significantly inhibited | rarely formed | effectively inhibited | – | 85.8 | – | HIV-1 replication inhibition relative to the other samples [2]: more effective; number of syncytia formed with time [3]: not increased; syncytia formation inhibiting effect compared with control group [3]: high syncytia formation inhibiting effect; p24 production inhibiting activity with later addition [5]: reduced as time passes; syncytia formation in co-culture over concentrations [6]: inhibited depending on the treated concentration; syncytia formation inhibition in co-culture compared with positive control group [6]: more effective; cell protecting effect from HIV-1 lysis activity (cell deaths) [7]: high cell protecting effect; Vif, Env, and Gag genes expressions [8]: reduced depending on the treatment concentrations; Env gene expression [8]: significantly inhibited; p24 antigen production (western blot) [9]: inhibited depending on the treatment concentrations
Chitosan oligomer-Asparagine [COS-N] | – | significantly inhibited | inhibited | – | 954 | 41.8 | 71.2 | syncytia formation inhibition over concentrations [10]: depending on the concentration; syncytia formation inhibition compared with positive control group ([10]; positive control Dextran sulfate): more effective
Chitosan oligomer-Aspartic acid [COS-D] | inhibited the HIV-1 replication depending on the concentration | significantly inhibited | inhibited | effectively inhibited | – | 83.4 | 78.8 | reverse transcriptase inhibiting effect at 0.05 mg/ml ([11]; 0.05 mg/ml): no the reverse transcriptase inhibiting effect; reverse transcriptase activity at low concentrations ([11]; 0.05 mg/ml and 0.1 mg/ml): not inhibited; reverse transcriptase inhibiting activity over concentrations [11]: depending on the concentration
Chitosan oligomer-Glutamic acid [COS-E] | – | significantly inhibited | inhibited | – | 1036 | 32.7 | – | p24 secretion amount (production amount) in culture supernatant [12]: effectively inhibited; HIV-1 protease inhibition over concentrations (HIV-1 protease [13]): depending on the concentration; HIV-1 protease inhibition in HIV-1saq [14]: effectively inhibited; HIV-1 protease inhibition (HIV-1 protease [15]): effectively inhibited
Chitosan oligomer-Threonine [COS-T] | inhibited the HIV-1 replication depending on the concentration | significantly inhibited | inhibited | – | 761 | 55.3 | 72.3 | syncytia formation inhibiting activity at 0.5 mg/ml or more ([10]; 0.5 mg/ml or more, as compared with COS-N): very sharply increased; syncytia formation inhibition over concentrations [10]: depending on the concentration
Chitosan oligomer-Tyrosine [COS-Y] | inhibited the HIV-1 replication depending on the concentration | significantly inhibited | inhibited | effectively inhibited | – | 83.5 | – | reverse transcriptase inhibiting activity over concentrations [11]: depending on the concentration
